For data set [1] the following is noted: hens; cited from earlier work.
On the set-up of data set [2]: species or system human. The conditions noted are these: in vivo. The source says: COAST was a 6-month, double-blind, block-randomized placebo-controlled study involving 81 healthy participants between 18 and 65 years old. Participant recruitment and assessment commenced on December 2017 and ended on December 2018. Recruitment was achieved through local media and advertisement at the Waterford Institute of Technology, local fitness centers, and with employees of an industry based in Waterford, Ireland. […] Every participant enrolled in the study provided written informed consent prior to commencement. The study protocol was approved May 2017 by the Research Ethics Committees of the Waterford Institute of Technology (Waterford, Ireland) and the HSE, South Eastern Area (University Hospital Waterford, Waterford, Ireland). Industrial Orgánica, S.A. de C.V., the manufacturer of the nutritional supplements, had no role in the design of the study, the collection and analysis of the data, or the preparation of manuscripts. All vouch for the accuracy of the data and the fidelity of the study to the protocol. COAST was a five-arm intervention study, where participants were randomly allocated, with equal probability and separately for men and women, to one of four active intervention groups or to a placebo group. Label claims of the nutritional content in the intervention supplements were as follows: Group 1, L (10 mg)+MZ (10 mg)+Z (2 mg) provided in one capsule; Group 2, L (10 mg)+MZ (10 mg)+Z (2 mg) provided in two capsules; […] Therefore, it was decided to present the dosages of the formulations as stated by label claim. […] Serum carotenoid concentrations were analyzed as the total concentrations (μmol/L) for each of the carotenoids in serum. […] Outcome variables were recorded at baseline and at 6 months. […] Calibration lines used, as well as lower and upper limits of quantification (LLOQ and ULOQ respectively), are as previously performed. Serum carotenoid analysis was completed in sixteen independent batches, with a maximum intra-day precision of 7.28%, measured as RSD, and an inter-day precision of 3.16% (RSD). […]

The conditions of data set [3]: cited from earlier work.

Structures are written as SMILES. Read-outs that look alike come from different tables or passages of the source.

Turning to `CC(=O)OC1CC(C)=C(C=CC(C)=CC=CC(C)=CC=CC=C(C)C=CC=C(C)C=CC2=C(C)CC(OC(C)=O)CC2(C)C)C(C)(C)C1` (stereo not drawn) [MZd, meso-zeaxanthin diacetate], in data set [1], the “deposition of carotenoid in egg yolk compared to free form” value (shortened to “deposition … compared to free form”) was “greater capability”. Further, in data set [2], the “serum response compared to free carotenoid as crystals” value is recorded as “significantly greater”.
As to `CC(=O)O[C@@H]1CC(C)=C(/C=C/C(C)=C/C=C/C(C)=C/C=C/C=C(C)/C=C/C=C(C)/C=C/[C@H]2C(C)=C[C@H](OC(C)=O)CC2(C)C)C(C)(C)C1` [Ld, (3R,3′R,6R)-lutein diacetate], the “deposition … compared to free form” value in data set [1] was “similar”. In data set [3] (previous clinical trial), the “serum response compared to group supplemented with free L” value is “slightly higher and not statistically different”. For the same compound, in data set [3] (previous report), the “MPOD improvements compared to free L supplementation” value is “superior and significant response”. In addition, the “serum response compared to free carotenoid as crystals” value in data set [2] was “remained similar”.
With `CC1=C[C@H](O)CC(C)(C)[C@H]1/C=C/C(C)=C/C=C/C(C)=C/C=C/C=C(C)/C=C/C=C(C)/C=C/C1=C(C)C[C@@H](O)CC1(C)C` [L, (3R,3′R,6R)-lutein, reference compound], the “increase of serum L” value in data set [3] (AREDS 2 study) was 200%; in data set [3] (CREST AMD study), 304%.
As to `CC(=O)O[C@@H]1CC(C)=C(/C=C/C(C)=C/C=C/C(C)=C/C=C/C=C(C)/C=C/C=C(C)/C=C/C2=C(C)C[C@@H](OC(C)=O)CC2(C)C)C(C)(C)C1` [Zd, (3R,3′R)-zeaxanthin diacetate], the “deposition … compared to free form” value in data set [1] was “greater capability”. The “serum response compared to free carotenoid as crystals” value in data set [2] is on record as “significantly greater”.
